Data: ChEMBL document CHEMBL5131490, “5-Substituted 3, 3', 4', 7-tetramethoxyflavonoids - A novel class of potent DNA triplex specific binding ligands” (Bioorg Med Chem Lett, 2022)
The source made the active and inactive calls. The rule behind the calls is not given here.

What was measured:
[1] = Stabilization of [poly(dA).poly(dT)] triplex DNA (unknown origin) assessed as change in melting temperature at 10 uM by UV based assay
[2] = Binding affinity to triplex DNA1 containing 15 nucleotide-long triplex-forming region (unknown origin) assessed as change in melting temperature at 10 uM by UV based assay
[3] = Stabilization of [poly(dA).2poly(dT) triplex DNA (unknown origin) assessed as melting temperature at 20 uM by Thermal denaturation assay
[4] = Binding affinity to triplex DNA1 containing 15 nucleotide-long triplex-forming region (unknown origin) at 100 uM by ITC
[5] = Stabilization of [poly(dA).2poly(dT) triplex DNA (unknown origin) assessed as melting temperature at 10 uM by DSC assay (reference value: 36.8 degC)
[6] = Stabilization of [poly(dA).2poly(dT) triplex DNA (unknown origin) assessed as deltaH level temperature at 10 uM by DSC assay (reference value: 5.19 KJ/mol)
[7] = Stabilization of [poly(dA).2poly(dT) triplex DNA (unknown origin) assessed as deltaS level temperature at 10 uM by DSC assay (reference value: 0.0167 mol.K)
[8] = Stabilization of [poly(dA).2poly(dT) triplex DNA (unknown origin) assessed as effect on CD spectrum up to 25 uM by CD spectroscopy
[9] = Stabilization of [poly(dA).2poly(dT) triplex DNA (unknown origin) assessed as increase in melting temperature at 1 uM by Thermal denaturation assay

Row | Structure (SMILES) | ΔTm [1] [°C] | ΔTm [2] [°C] | Tm [3] [°C] | Ka [4] [M⁻¹] | Tm [5] [°C] | deltaH [6] [kcal/mol] | deltaS [7] | Activity [8] | ΔTm [9] [°C]
1 | CCN(CC)CCCCOc1cc(OC)cc2oc(-c3ccc(OC)c(OC)c3)c(OC)c(=O)c12 | 14.5 | 11.2 |  |  |  |  |  |  | 
2 | CCCCN(CCCC)CCCCOc1cc(OC)cc2oc(-c3ccc(OC)c(OC)c3)c(OC)c(=O)c12 | 3.3 | 5.6 |  |  |  |  |  |  | 
3 | NC[C@@H]1O[C@H](O[C@H]2[C@@H](O)[C@H](O[C@@H]3[C@@H](O)[C@H](N)C[C@H](N)[C@H]3O[C@H]3O[C@H](CN)[C@@H](O)[C@H](O)[C@H]3N)O[C@@H]2CO)[C@H](N)[C@@H](O)[C@@H]1O |  |  | 24 | 160000 |  |  |  |  | 
4 | COc1cc(OCCCCN2CCN(C)CC2)c2c(=O)c(OC)c(-c3ccc(OC)c(OC)c3)oc2c1 | 12.3 | 5.6 |  |  |  |  |  |  | 
5 | COc1cc(O)c2c(=O)c(OC)c(-c3ccc(OC)c(OC)c3)oc2c1 | 2.5 | 3.2 |  |  | 38.5 | 1.24 | 0.0167 KJ/(mol.K) | Active | 
6 | CCCCCN(CCCCC)CCCCOc1cc(OC)cc2oc(-c3ccc(OC)c(OC)c3)c(OC)c(=O)c12 | 2.4 | 5.6 |  |  |  |  |  |  | 

Results, then the compound that gave them:

Row | ΔTm [1] [°C] | ΔTm [2] [°C] | Tm [3] [°C] | Ka [4] [M⁻¹] | Tm [5] [°C] | deltaH [6] [kcal/mol] | deltaS [7] | Activity [8] | ΔTm [9] [°C] | Structure (SMILES)
7 | 16.4 | 13.6 | 24 |  |  |  |  |  | 6 | COc1cc(OCCCCN2CCCCC2)c2c(=O)c(OC)c(-c3ccc(OC)c(OC)c3)oc2c1
8 | 10.3 | 11.2 |  |  |  |  |  |  |  | CCCN(CCC)CCCCOc1cc(OC)cc2oc(-c3ccc(OC)c(OC)c3)c(OC)c(=O)c12
9 | 17.4 | 12.6 |  | 310000 | 48.9 | 2.08 | 0.0271 KJ/(mol.K) | Active |  | COc1cc(OCCCCN2CCCC2)c2c(=O)c(OC)c(-c3ccc(OC)c(OC)c3)oc2c1
